One series has as its system CT DNA. The experiment in a line: viscometry (hydrodynamic studies) of CT DNA solutions. Format: binding, calf. Here is the method: Calf thymus (CT) DNA was dissolved in 50 mM Na-phosphate buffer, pH 7.2, to a concentration of 0.1 or 0.5 mM relative to base pairs as described in the legend for FIGS. 3A and B. DNA solution was allowed to run through a custom-made capillary viscometer and the time necessary for the meniscus to pass a certain distance was measured using a stopwatch. All experiments were performed at 23° C. Viscosity values were calculated using the equation: η=(t−t0)/t0, where t is the flow time of DNA solution (with or without dye), and t0 is the flow time of Na-phosphate buffer alone. For each control and DNA solutions with dyes flow times were measured three to five times. Viscosity of DNA solutions with dyes were calculated as (η/η0)^1/3, where η0 and η are relative viscosities of the CT DNA solution in the absence and presence of the dye, respectively. This calculation stems from the relationship which exists between the relative solution viscosity and the relative contour length (L/L0): L/L0=(η/η0)^1/3, where L stands for the apparent molecular length (Muller, W. et al., 1968, J Mol Biol, 35, 251-290). Average viscosity values and standard error of the mean (SEM) were determined using (η/η0)^1/3 values calculated for each time flow measurement.
DNA-binding dyes interact with dsDNA by intercalation or external binding, or both. External binding most often involves the minor groove of DNA (Kopka et al.; Pjura, P. E., et al., 1987, J Mol Biol, 197, 257-271). Intercalation occurs when a ligand inserts itself between the opposite strands of DNA. In order to determine the mechanism of compound I binding to dsDNA, the inventors performed hydrodynamic studies. This approach is based on the observation that intercalating molecules increase the length of DNA fragments and, consequently, enhance the viscosity of DNA solutions (Muller W. et al.; Suh, D. et al., 1995, Bioorg Med Chem, 3, 723-728). For this experiment, compound I has been compared to the known DNA intercalator ethidium bromide and to the external minor groove binder Hoechst 33258. CT DNA at 0.5 mM was mixed with drugs at 0.1 mM concentration (0.2 dye/bp ratio) and used for viscometry measurements.
The inventors then wondered whether the increase in viscosity is equally matched by the increase in fluorescence intensity. To answer this question, CT DNA at 0.1 mM (bp) was mixed with increasing amounts of compound I and viscosity measurements were performed as above. The viscosity of the DNA/compound I solutions increased up to a dye/bp ratio 1 (FIG. 3B). To correlate the increase in viscosity with fluorescence, the inventors measured fluorescence intensities at 484 nm of the compound I/DNA solutions used for the viscosity measurements.

A short description of a further series: stability in DMSO. It is filed as physicochemical. Here is the method: Stability of compound I: When stored in the dark in anhydrous DMSO at −25° C., compound I is stable for periods up to 3 years (LC-MS).
The subject of the next series is Xenopus cells XL177. As to the kind of experiment: visual phenotypic screen on live Xenopus cells XL177. Format: cell-based. Here is the method:
In this study, three different types of cells were used: Xenopus epithelial cell line XL177 (Miller, L. et al., 1977, In Vitro, 13, 557-563) stably transformed with a YFP-α-tubulin expressing construct (pEYFP-Tub, Clontech), mouse fibroblasts, and primary human skin fibroblasts. XL177 cells were grown at 20° C. in 60% Leibowitz-15 medium, supplemented with antibiotics, 10% fetal calf serum (FCS) and 10 mM HEPES, pH 7.2 with addition of 0.7 mg/ml G418. Cells were plated into glass-bottom 96-well plates (Greiner, Germany) and left to spread for 24 hours before being incubated in the presence of the test compounds from the Curie-CNRS small molecule library (at 25 or 50 μM final concentration) for another 20-24 hours. Mouse and human fibroblasts were grown in DMEM with antibiotics and 10% FCS at 37° C. in the presence of 5% CO2. The cells were observed using a Zeiss Axiovert 200M microscope with a 40× oil immersion objective and a standard Alexa488/FITC filter (Omega, XF100-2; Ex475AF40/Em535AF45/Dichroic505). Subsequent experiments were carried out using smaller concentrations of compound I and incubation times as described in the text and figures legends. For the in vivo tests of compound I-like compounds, the molecules were added to cell culture medium at 10 μM final concentration and incubated with cells 10-60 min (up to 24 hours) prior to scoring.
The signal appeared after 10-20 sec illumination and was stable for many minutes thereafter (see below).

In series [1] the test system is primary human fibroblasts. The experiment in a line: nuclear fluorescence compared with cyclin A immunofluorescence (DNA quantification). The note with it: methanol-fixed cells. Format: cell-based. The text has this:
Such a double staining carried the risk of a possible competition for binding sites and/or unpredictable effects on fluorescence. Therefore, the inventors decided to compare the integrated total fluorescence of compound I-stained nuclei in fixed cells with a known cell cycle protein marker. The inventors fixed primary human fibroblasts with methanol, performed indirect immunofluorescence with anti-cyclin A antibodies, followed by Alexa 568-labelled secondary antibodies and counterstained nuclei with compound I. Cyclin A accumulates in cells beginning at the S phase and throughout the G2 cell cycle phase, and unlike cyclin B, is practically all nuclear (rev. in Pines, J. et al., 1992, Ciba Found Symp, 170, 187-196; discussion 196-204.). […] Moreover, the inventors observed a direct correlation of the compound I fluorescence with that of cyclin A in cyclin A-positive cells (FIG. 6B). […] This correlates well with 2N and 4N DNA content expected to be found in G1 and G2 cells, respectively.

The text below walks through data of patent publication US7728128B2, “Dibenzo[c,h][1,5]naphthyridines and their use as DNA probes” (Institut National de la Sante et de la Recherche Medicate …, priority 2006, dated 2010).

Take `COc1ccc2c(c1)c(C)nc1c3ccc(OC)cc3c(NCCCN(C)C)nc21` [Compound I, N′-(2,8-dimethoxy-12-methyl-dibenzo[c,h][1,5]naphthyridin-6-yl)-N,N-dimethyl-propane-1,3-diamine]: in the series with CT DNA (CT DNA 0.1 mM (bp)), the “dye/bp ratio up to which viscosity increased” value was at most 1. For the same compound, the “dye/bp ratio of maximal fluorescence intensity” value in the series with CT DNA (CT DNA 0.1 mM (bp), 484 nm) was 0.2. Further, the “effect on viscosity of DNA solution” value in the series with CT DNA (CT DNA 0.5 mM, drug 0.1 mM (0.2 dye/bp ratio)) is listed as “increasing the viscosity of the DNA solution”. For the same compound, the “stability, period stable” value is on record as “stable for at least one year” in the series “stability in DMSO” (DMSO at 4° C. in the dark); “at least 48 hours” in “stability in DMSO” (DMSO solution, ambient temperature, dark); “up to 3 years” in “stability in DMSO” (anhydrous DMSO at −25° C., dark (LC-MS)). Besides, the “illumination time before nuclear signal appeared” value with Xenopus cells XL177 (Alexa488/FITC filter) was 10 to 20 s. Besides, the cell membrane permeability entry in the series on Xenopus cells XL177 (live cells) is “cell-membrane permeant”. For the same compound, the “toxicity in cultured cells” value in the series on Xenopus cells XL177 (standard cell culture conditions) is on record as “non-toxic under standard cell culture conditions (up to six days in culture)”. Also, the “dye fluorescence of strongly cyclin A-positive nuclei relative to cyclin A-negative nuclei” value in series [1] is “approximately twice as much”.
